Laboratory results reported in PubChem BioAssay AID2060502 (Molecular Pharmacology Branch, DTP, NCI, 2025).

Test system: 885724-159-R-J1-PDC complex spheroid viability
Assay: Anticancer human tumor 885724-159-R-J1-PDC patient-derived pancreatic adenocarcinoma cell line growth inhibition [GQUAD]
Conditions: for IC50: curve of first compound; for viability, T/C: stronger effect = lower value
In short: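 Multi-cell-type spheroids of tumor cells with HUVEC and mesenchymal stem cells, treated with drug combinations. Concentrations descend in half-log steps from near clinical Cmax, or from 10 microM where Cmax is unknown; viability read-out.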

[1] = second compound 0.0316 µM, first compound 0.0316 µM
[2] = second compound 0.0316 µM, first compound 0.1 µM
[3] = second compound 0.0316 µM, first compound 0.316 µM
[4] = second compound 0.0316 µM, first compound 1 µM
[5] = second compound 0.0316 µM, first compound 3.16 µM
[6] = second compound 0.0316 µM, first compound 10 µM
[7] = second compound 0.1 µM, first compound 0.0316 µM
[8] = second compound 0.1 µM, first compound 0.1 µM
[9] = second compound 0.1 µM, first compound 0.316 µM
[10] = second compound 0.1 µM, first compound 1 µM
[11] = second compound 0.1 µM, first compound 3.16 µM
[12] = second compound 0.1 µM, first compound 10 µM
[13] = second compound 0.316 µM, first compound 0.0316 µM
[14] = second compound 0.316 µM, first compound 0.1 µM
[15] = second compound 0.316 µM, first compound 0.316 µM
[16] = second compound 0.316 µM, first compound 1 µM
[17] = second compound 0.316 µM, first compound 3.16 µM
[18] = second compound 0.316 µM, first compound 10 µM
[19] = second compound 1 µM, first compound 0.0316 µM
[20] = second compound 1 µM, first compound 0.1 µM
[21] = second compound 1 µM, first compound 0.316 µM
[22] = second compound 1 µM, first compound 1 µM
[23] = second compound 1 µM, first compound 3.16 µM
[24] = second compound 1 µM, first compound 10 µM
[25] = second compound 3.16 µM, first compound 0.0316 µM
[26] = second compound 3.16 µM, first compound 0.1 µM
[27] = second compound 3.16 µM, first compound 0.316 µM
[28] = second compound 3.16 µM, first compound 1 µM
[29] = second compound 3.16 µM, first compound 3.16 µM
[30] = second compound 3.16 µM, first compound 10 µM
[31] = second compound 10 µM, first compound 0.0316 µM
[32] = second compound 10 µM, first compound 0.1 µM
[33] = second compound 10 µM, first compound 0.316 µM
[34] = second compound 10 µM, first compound 1 µM
[35] = second compound 10 µM, first compound 3.16 µM
[36] = second compound 10 µM, first compound 10 µM
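Also: spheroids exposed to agents for seven days before readout.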
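For viability, T/C in this document: percent of vehicle control viability where 100% = DMSO wells.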

In the case of `CC(=O)O[C@H]1C(=O)[C@@]2(C)[C@H]([C@H](OC(=O)c3ccccc3)[C@]3(O)C[C@H](OC(=O)[C@H](O)[C@@H](NC(=O)c4ccccc4)c4ccccc4)C(C)=C1C3(C)C)[C@]1(OC(C)=O)CO[C@@H]1C[C@@H]2O` + Cc1[nH]c2ccc(F)cc2c1-c1nc2c3cccnc3c3ncccc3c2[nH]1, the IC50 (second compound 0.0316 µM) is reported as greater than 10 µM, the IC50 (second compound 0.1 µM) is reported as greater than 10 µM and the IC50 (second compound 0.316 µM) is reported as greater than 10 µM. The IC50 (second compound 1 µM) was greater than 10 µM, the IC50 (second compound 3.16 µM) was less than 0.0316 µM and the IC50 (second compound 10 µM) was greater than 10 µM. It also gave a viability, T/C [1] of 102%, a viability, T/C [2] of 76.5% and a viability, T/C [3] of 85.7%. For the same molecule, the viability, T/C [4] was 91.4%, the viability, T/C [5] was 81.6% and the viability, T/C [6] was 83.3%. It also gave a viability, T/C [7] of 112%, a viability, T/C [8] of 83.2% and a viability, T/C [9] of 78%. For the same molecule, the viability, T/C [10] was 84.8%, the viability, T/C [11] was 86.5% and the viability, T/C [12] was 87%. The viability, T/C [13] was 87.8%, the viability, T/C [14] was 77.8% and the viability, T/C [15] was 82.8%. For the same molecule, the viability, T/C [16] was 79.6%, the viability, T/C [17] was 80.8% and the viability, T/C [18] was 80.2%. It also gave a viability, T/C [19] of 69.5%, a viability, T/C [20] of 54.7% and a viability, T/C [21] of 61.8%. The viability, T/C [22] was 51.1%, the viability, T/C [23] was 78.6% and the viability, T/C [24] was 55.5%. For the same molecule, the viability, T/C [25] was 16.7%, the viability, T/C [26] was 6.91% and the viability, T/C [27] was 7.17%. For the same molecule, the viability, T/C [28] was 8.73%, the viability, T/C [29] was 10% and the viability, T/C [30] was 5.61%. The viability, T/C [31] was 56.7%, the viability, T/C [32] was 53.2% and the viability, T/C [33] was 54.5%. For the same molecule, the viability, T/C [34] was 55%, the viability, T/C [35] was 68.5% and the viability, T/C [36] was 59.2%.
Molecule `CCCS(=O)(=O)Nc1ccc(F)c(C(=O)c2c[nH]c3ncc(-c4ccc(Cl)cc4)cc23)c1F` + Cc1[nH]c2ccc(F)cc2c1-c1nc2c3cccnc3c3ncccc3c2[nH]1 has an IC50 (second compound 0.0316 µM) greater than 10 µM, an IC50 (second compound 0.1 µM) greater than 10 µM and an IC50 (second compound 0.316 µM) greater than 10 µM. For the same molecule, the IC50 (second compound 1 µM) was 7.43 µM, the IC50 (second compound 3.16 µM) was less than 0.0316 µM and the IC50 (second compound 10 µM) was 8.37 µM. It also gave a viability, T/C [1] of 98.7%, a viability, T/C [2] of 106% and a viability, T/C [3] of 112%. The viability, T/C [4] was 130%, the viability, T/C [5] was 123% and the viability, T/C [6] was 65.2%. It also gave a viability, T/C [7] of 110%, a viability, T/C [8] of 106% and a viability, T/C [9] of 116%. For the same molecule, the viability, T/C [10] was 124%, the viability, T/C [11] was 125% and the viability, T/C [12] was 65.6%. It also gave a viability, T/C [13] of 97.6%, a viability, T/C [14] of 89.8% and a viability, T/C [15] of 90%. It also gave a viability, T/C [16] of 107%, a viability, T/C [17] of 130% and a viability, T/C [18] of 59.8%. The viability, T/C [19] was 71.8%, the viability, T/C [20] was 60.4% and the viability, T/C [21] was 88.2%. The viability, T/C [22] was 90.8%, the viability, T/C [23] was 102% and the viability, T/C [24] was 38.7%. It also gave a viability, T/C [25] of 17%, a viability, T/C [26] of 17.7% and a viability, T/C [27] of 14.4%. For the same molecule, the viability, T/C [28] was 18.3%, the viability, T/C [29] was 13.9% and the viability, T/C [30] was 4.94%. The viability, T/C [31] was 65.9%, the viability, T/C [32] was 73.4% and the viability, T/C [33] was 77.7%. For the same molecule, the viability, T/C [34] was 93.8%, the viability, T/C [35] was 110% and the viability, T/C [36] was 43.6%.
